The values that follow come from PubChem BioAssay (NCI).

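Results reflect a 48-hour exposure of cells in 96-well plates to compound at five concentrations. The concentration for full growth arrest is given as TGI.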 Where only a bound is given, the exact number is not on record here.

Assay in all cases: NCI tumour cell line growth inhibition, 48 h
The test system of assay [1] is T-47D breast.
The test system of assay [2] is PC-3 prostate.
The test system of assay [3] is KM12 colon.
Assay [4] relates to MDA-MB-435.
For assay [5], the system named is RPMI-8226 leukemia.
Assay [6] relates to OVCAR-8 ovarian.
Assay [7] has as its system U251 CNS.
Assay [8] has as its system HT29 colon.
The subject of assay [9] is HOP-62 NSCLC.
For assay [10], the system named is ACHN renal.

With `CC1CC(=O)N(N(C)C)C(C#N)(C#N)C1(C#N)C#N` (stereo not given), the TGI in assay [1] is 42.1 µM; in assay [2], 34.8 µM; in assay [3], more than 64.9 µM; in assay [4], 32.9 µM; in [5], 32 µM; in assay [6], 45.2 µM. For the same molecule, the TGI was 42.4 µM in [7], 38 µM in assay [8], more than 60.6 µM in [9] and 29.3 µM in assay [10].

On to `CCOC(=O)Cc1nc2c(N)ncnc2n1C1OC(COC(C)=O)C(OC(C)=O)C1OC(C)=O` (stereo not given), for which the TGI in assay [1], in assay [2], in assay [3], in [4], in assay [5] and in [6] was more than 100 µM each time. For the same molecule, the TGI in assay [7], in assay [8], in assay [9] and in [10] was more than 100 µM each time.

As for `c1cnc(N2CCN(Cc3c[nH]c4ccccc34)CC2)nc1`, the TGI in assay [1] was 72.2 µM; in assay [2], more than 100 µM; in assay [3], 76.6 µM; in assay [4] it was more than 100 µM; in [5], 63.7 µM; in assay [6] it was more than 100 µM. In addition, the TGI in assay [7], in assay [8], in assay [9] and in assay [10] was more than 100 µM throughout.

With `N#C[C@H](c1nc2ccccc2s1)c1nc2ccccc2nc1Cl`, the TGI in assay [1], in assay [2], in [3], in assay [4], in assay [5] and in assay [6] was more than 100 µM each time. In addition, the TGI in assay [7] was more than 100 µM; in [8] it was more than 100 µM; in assay [9] it was 77.1 µM; in assay [10] it was 29.8 µM.

`COc1cc(N(Cc2ccc3oc(=O)c(-c4ccccc4)nc3c2)Cc2ccc3oc(=O)c(-c4ccccc4)nc3c2)cc(OC)c1OC`: the TGI in assay [1], in [2], in assay [3], in assay [4], in assay [5] and in assay [6] was more than 10 µM in each case. The TGI in assay [7], in assay [8], in assay [9] and in [10] was more than 10 µM in each case.
